{
  "source": "patent US20090233958A1",
  "about": "“(+)-BELOXEPIN AND METHODS FOR ITS SYNTHESIS AND USE” (priority 2008, published 2009)",
  "key": {"[1]": {"tested_on": "animal models of depression", "settings": "cited from earlier work"}, "depression": {"tested_on": "depression", "settings": "based on HAMD score reduction; cited from earlier work"}, "[2]": {"tested_on": "noradrenergic, histaminergic and cholinergic receptors", "settings": "Sperling & Demling 1997; cited from earlier work"}, "major depression": {"tested_on": "major depression", "settings": "subsequent clinical trials; Paanakker et al. 1998; cited from earlier work"}, "REM sleep": {"tested_on": "REM sleep", "settings": "25-400 mg, cited from earlier work"}, "5HT2C receptor": {"biological_target": "T1, 5HT2C receptor (Homo sapiens, UniProt P28335)", "T1 sequence (P28335 33-458)": "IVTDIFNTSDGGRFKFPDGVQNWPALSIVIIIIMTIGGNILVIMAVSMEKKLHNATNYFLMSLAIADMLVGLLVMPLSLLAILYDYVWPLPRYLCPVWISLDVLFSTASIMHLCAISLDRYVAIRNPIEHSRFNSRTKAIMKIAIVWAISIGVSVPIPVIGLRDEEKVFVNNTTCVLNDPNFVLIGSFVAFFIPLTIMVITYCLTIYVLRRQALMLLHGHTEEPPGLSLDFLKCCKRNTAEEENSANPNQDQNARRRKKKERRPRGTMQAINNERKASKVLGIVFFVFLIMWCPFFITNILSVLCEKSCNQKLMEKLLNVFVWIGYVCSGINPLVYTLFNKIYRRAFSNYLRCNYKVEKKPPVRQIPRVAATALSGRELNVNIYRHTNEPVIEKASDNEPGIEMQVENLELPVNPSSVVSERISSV", "settings": "Claghorn & Lesem 1996; cited from earlier work"}, "[3]": {"settings": "cited from earlier work"}, "NET": {"biological_target": "T2, NET (Rattus norvegicus, UniProt Q63380)", "T2 construct": "from tissue; host or cells: rat hypothalamus synaptosomes", "T2 sequence (Q63380 1-617)": "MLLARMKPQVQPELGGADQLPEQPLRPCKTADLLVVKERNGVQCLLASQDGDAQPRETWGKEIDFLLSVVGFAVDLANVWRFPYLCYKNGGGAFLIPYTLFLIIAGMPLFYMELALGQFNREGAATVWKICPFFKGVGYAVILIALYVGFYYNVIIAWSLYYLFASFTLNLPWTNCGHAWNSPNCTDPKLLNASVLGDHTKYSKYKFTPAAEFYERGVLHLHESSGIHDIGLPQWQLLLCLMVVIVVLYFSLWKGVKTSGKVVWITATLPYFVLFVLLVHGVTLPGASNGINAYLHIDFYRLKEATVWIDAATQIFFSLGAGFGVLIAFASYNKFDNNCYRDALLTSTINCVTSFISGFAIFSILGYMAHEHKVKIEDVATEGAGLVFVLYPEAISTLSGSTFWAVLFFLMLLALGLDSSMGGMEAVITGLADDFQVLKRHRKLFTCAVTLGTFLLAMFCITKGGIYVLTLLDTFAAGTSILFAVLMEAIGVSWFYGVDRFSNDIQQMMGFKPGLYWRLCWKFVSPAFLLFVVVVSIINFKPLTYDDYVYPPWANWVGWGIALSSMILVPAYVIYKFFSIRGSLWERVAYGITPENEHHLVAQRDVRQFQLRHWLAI", "experiment": "NE uptake inhibition assay, rat hypothalamus synaptosomes", "assay_type": "biochemical", "settings": "read-out: NET IC50 (norepinephrine reuptake inhibition)"}, "[4]": {"tested_on": "rat hindpaw incision model", "experiment": "Rat hindpaw incision model of post-operative pain, tactile allodynia", "assay_type": "in vivo", "settings": "30 mg/kg IP, 24 hours post-surgery, tested 30, 60, 120, 240 min", "protocol": "Protocol. A time course experiment was also performed with (−)-beloxepin in the hindpaw incision model. At 24 hours post-surgery, rats received vehicle or (−)-beloxepin (30 mg/kg IP). Rats were tested for tactile allodynia at 30, 60, 120 and 240 minutes after administration of (−)-beloxepin.\nProtocol. Another time course experiment was performed with (+)-beloxepin in the hindpaw incision model. At 24 hours post-surgery, rats received vehicle or (+)-beloxepin (30 mg/kg IP). Rats were tested for tactile allodynia at 30, 60, 120 and 240 minutes after administration of (+)-beloxepin."}, "L5 SNL rats": {"tested_on": "L5 SNL rats", "experiment": "L5-Single Nerve Ligation model of neuropathic pain, tactile allodynia (von Frey)", "assay_type": "in vivo, rat", "settings": "for antiallodynic effect: 8 days post surgery, 30 min post treatment, FIG. 1; for antiallodynic effect over time: tested 30, 60, 120, 240 min", "protocol": "Protocol. The antiallodynic activity of (+)- and (−)-beloxepin were tested in vivo using the L5-Single Nerve Ligation model of non-nociceptive neuropathic pain as described in LaBuda & Little, 2005, J. Neurosci. Methods 144:175-181. The test animals were placed in a Plexiglas chamber (10 cm×20 cm×25 cm) and habituated for 15 minutes. The chamber was positioned on top of a mesh screen so that von Frey monofilaments could be presented to the plantar surface of both hindpaws. Measurement of tactile sensitivity for each hind paw were obtained using the up/down method (Dixon, 1980, Annu. Rev. Pharmacol. Toxicol. 20:441-462) with seven Frey monofilaments (0.4, 1, 2, 4, 6, 8 and 15 grams). Each trial started with a von Frey force of 2 grams delivered to the right hind paw for approximately 1-2 seconds and then the left hind paw. If there was no withdrawal response, the next higher force was delivered. If there was a response, the next lower force was delivered. This procedure was performed until no response was made at the highest force (15 grams) or until four stimuli were administered following the initial response. The 50% paw withdrawal threshold for each paw was calculated using the following formula: [Xth]log=[vFr]log+ky, where [vFr] is the force of the last von Frey used, k=0.2249 which is the average interval (in log units) between the von Frey monofilaments, and y is a value that depends upon the pattern of withdrawal responses (Dixon, 1980, supra). […] Testing for tactile sensitivity was performed twice and the mean 50% withdrawal value assigned as the tactile sensitivity for the right and left paws for each animal.\nResults. The antiallodynic effects produced by (+)-beloxepin (30 mg/kg IP) and (−)-beloxepin (30 mg·kg IP) in L5 SNL rats 8 days post surgery are illustrated in FIG. 1. In this experiment, at 8 days post surgery, rats were treated with vehicle or beloxepin enantiomers (30 mg/kg IP) and tested for tactile allodynia at 30 min post treatment. […] No side effects were observed following treatment with either enantiomer.\nThe antiallodynic effects produced by (+)-beloxepin (30 mg/kg IP) in L5 SNL rats 14 days post surgery are illustrated in FIG. 2. In this experiment, at 14 days post surgery, rats were treated with vehicle or (+)-beloxepin and tested for tactile allodynia at 30, 60, 120 and 240 min post treatment. Vehicle treated rats were tested at 30 min post treatment.\nProtocol. A time course experiment was performed with (−)-beloxepin (60 mg/kg PO) in L5 SNL rats at 7 days post-surgery. Rats were tested at 30, 60, 120, and 240 minutes post-drug.\nProtocol. A time course experiment was also performed with (+)-beloxepin (60 mg/kg PO) in L5 SNL rats at 14 days post-surgery. Rats were tested at 30, 60, 120, and 240 minutes post-drug."}, "[5]": {"tested_on": "rat 50° C. hot plate model", "experiment": "Rat 50° C. hot plate assay", "assay_type": "in vivo", "settings": "for antinociceptive activity: 30 mg/kg IP, 30, 60 and 120 minutes after treatment", "protocol": "Protocol. Rats were treated with vehicle, 30 mg/kg IP of (−)-beloxepin, or 30 mg/kg IP of (+)-beloxepin and then were placed on a hot plate (50° C.) 30, 60, or 120 minutes after administration of the vehicle or beloxepin enantiomer. Rats treated with 3 mg/kg SC of morphine and tested 30 min post-treatment were used as a positive control in these experiments."}},
  "note": "pIC50: −log10 of the molar value. Like-named read-outs stand apart in the source and are kept apart here.",
  "data": [
    {"smiles": "Cc1cccc2c1Oc1ccccc1C1(O)CCN(C)CC21", "note": "(racemic) [(±)-beloxepin, cis-1,2,3,4,4a,13b-hexahydro-2,10-dimethyldiben-[2,3:6,7]oxepino[4,5c]pyridine-4-a-ol]]", "values": [
      {"measurement": "antidepressant properties", "setting": "[1]; acquired immobility, reserpine-induced hypothermia, conditioned avoidance", "result": "exhibit antidepressant properties"},
      {"measurement": "sedation, motor impairment or other side effects", "setting": "[1]; preclinical depression tests", "result": "did not cause sedation, motor impairment or other untoward side effects"},
      {"measurement": "fraction of patients with moderate to good response", "setting": "depression", "result": "⅔"},
      {"measurement": "affinity for noradrenergic, histaminergic and cholinergic receptors", "setting": "[2]", "result": "no or very weak affinity"},
      {"measurement": "efficacy for the treatment of major depression", "setting": "major depression", "result": "insufficient efficacy"},
      {"measurement": "total duration of nocturnal REM sleep", "setting": "REM sleep; EEG", "result": "decreased"},
      {"measurement": "REM latency", "setting": "REM sleep; acutely and sub-chronically, EEG", "result": "dose-dependently prolonged REM latency"},
      {"measurement": "sedation or other side effects", "setting": "REM sleep; human volunteers", "result": "No sedation or other side effects were observed"},
      {"measurement": "affinity for the 5HT2C receptor", "setting": "5HT2C receptor", "result": "modest affinity"},
      {"measurement": "adverse effects", "setting": "[3]; healthy volunteers, up to 800 mg/day", "result": "No important adverse effects were observed"},
      {"measurement": "tmax", "setting": "[3]; steady-state, doses of 50 to 800 mg, healthy normal subjects", "result": 1.17, "unit": "h"},
      {"measurement": "pIC50", "setting": "NET", "result": 6.89}
    ]},
    {"smiles": "Cc1cccc2c1Oc1ccccc1C1(O)CCN(C)CC21", "note": "(single isomer, unassigned; (+)) [(+)-beloxepin]", "values": [
      {"measurement": "antiallodynic effect over time", "setting": "[4]", "result": "significant antiallodynic effect at the 30 and 60 minute time points"},
      {"measurement": "antiallodynic effect", "setting": "L5 SNL rats; 30 mg/kg IP", "result": "not statistically significant, (+)-beloxepin produced an antiallodynic effect that was comparable to that observed with (−)-beloxepin"},
      {"measurement": "maximal efficacy, % of the threshold of vehicle-treated rats", "setting": "L5 SNL rats; 30 mg/kg IP, 14 days post surgery", "result": 423, "unit": "%"},
      {"measurement": "antiallodynic effect over time", "setting": "L5 SNL rats; 30 mg/kg IP, 14 days post surgery, FIG. 2", "result": "significant antiallodynic effects at the 30 and 60 min time points"},
      {"measurement": "antiallodynic effect over time", "setting": "L5 SNL rats; 60 mg/kg PO, 14 days post-surgery, FIG. 4", "result": "did not produce significant antiallodynic effects at any time point"},
      {"measurement": "antinociception, % MPE values", "setting": "[5]; 30 mg/kg IP, 30, 60, 120 min, FIG. 8", "result": "10-17%"},
      {"measurement": "antinociceptive activity", "setting": "[5]", "result": "no antinociception was observed"}
    ]},
    {"smiles": "Cc1cccc2c1Oc1ccccc1C1(O)CCN(C)CC21", "note": "(single isomer, unassigned; (-)) [(−)-beloxepin]", "values": [
      {"measurement": "antiallodynic effect over time", "setting": "[4]", "result": "significant antiallodynic effect at the 30 and 120 minute time point"},
      {"measurement": "antiallodynic effect", "setting": "L5 SNL rats; 30 mg/kg IP", "result": "significant antiallodynia"},
      {"measurement": "antiallodynic effect over time", "setting": "L5 SNL rats; 60 mg/kg PO, 7 days post-surgery, FIG. 3", "result": "significant antiallodynic effects at the 60 and 120 minute time points"},
      {"measurement": "antinociceptive activity", "setting": "[5]", "result": "robust antinociceptive activity at 30, 60, and 120 minutes after treatment"},
      {"measurement": "pIC50", "setting": "NET; [3H]norepinephrine, rat hypothalamus synaptosomes, 20 min 37° C.", "result": 6.92}
    ]}
  ]
}
